Data on eleven compounds can be found in patent publication US10100058B2, “Fused heterocyclic compounds as CaM kinase inhibitors” (Gilead Sciences, Inc., priority 2016, dated 2018).

This assay deals with recombinant CaMKIIδ (Homo sapiens (Human), UniProt Q13557). The assay can be described thus: CaMKIIδ biochemical assay (HTRF). As to conditions: 10 pM CaMKIIδ, 110 nM calmodulin, 12 μM ATP, 1 hour; read-out: CAMKIID-HTRF-384V2 (IC50 - nM). As to the method: CaMKIIδ Biochemical Assay
The biochemical activity of recombinant CaMKIIδ was measured by monitoring the phosphorylation of a target peptide using Homogenous Time Resolved Fluorescence (HTRF) technology from CisBio Bioassays.
On the technique in general: Time-resolved FRET reads energy transfer from a long-lived donor to a nearby acceptor.

For `CCN(CC)[C@@H](C)CNC(=O)c1ccnc(-c2cnn3ccc(-c4ccccc4)nc23)c1` [Example 38, (S)—N-(2-(diethylamino)propyl)-2-(5-phenylpyrazolo[1,5-a]pyrimidin-3-yl)isonicotinamide], the IC50 amounted to 2.08 nM. Consider `CCN(CC)[C@@H](C)CNC(=O)c1cc(-c2cnn3ccc(-c4cccs4)nc23)nc(N2CC[C@H]2C(N)=O)c1` [Example 299, 2-((S)-2-carbamoylazetidin-1-yl)-N—((S)-2-(diethylamino)propyl)-6-(5-(thiophen-2-yl)pyrazolo[1,5-a]pyrimidin-3-yl)isonicotinamide], for which the 50% inhibitory concentration (IC50) is 0.22 nM. As for `CCN(CC)[C@@H](C)CNC(=O)c1cc(NCC2(C)COC2)nc(-c2cnn3ccc(-c4cccs4)nc23)c1` [Example 191, (S)—N-(2-(diethylamino)propyl)-2-(((3-methyloxetan-3-yl)methyl)amino)-6-(5-(thiophen-2-yl)pyrazolo[1,5-a]pyrimidin-3-yl)isonicotinamide], the figure is 0.2 nM. With `CCN(CC)[C@@H](C)CNC(=O)c1cc(-c2cnn3ccc(-c4cccs4)nc23)nc(N2CCC[C@@H]2C(F)(F)F)c1` [Example 251, N—((S)-2-(diethylamino)propyl)-2-(5-(thiophen-2-yl)pyrazolo[1,5-a]pyrimidin-3-yl)-6-((R)-2-(trifluoromethyl)pyrrolidin-1-yl)isonicotinamide] the figure was 2.05 nM. With `CCN(CC)[C@@H](C)CNC(=O)c1cc(-c2cnn3ccc(-c4cccs4)nc23)nc(N(C)S(C)(=O)=O)c1` [Example 177, (S)—N-(2-(diethylamino)propyl)-2-((N-methylmethyl)sulfonamido)-6-(5-(thiophen-2-yl)pyrazolo[1,5-a]pyrimidin-3-yl)isonicotinamide] the figure was 0.8 nM; with `O=C(c1ccnc(-c2cnn3ccc(-c4ccccc4)nc23)c1)N1CCCC[C@@H]1[C@@H]1CCCN1` [Example 93, (2-(5-phenylpyrazolo[1,5-a]pyrimidin-3-yl)pyridin-4-yl)((R)-2-((S)-pyrrolidin-2-yl)piperidin-1-yl)methanone], 27.8 nM; with `COC1CN(c2cc(C(=O)N3CC4CCC(C3)NC4)cc(-c3cnn4ccc(-c5ccccc5)nc34)n2)C1` (centres unmarked) [Example 329, (-3,6-diazabicyclo[3.2.2]nonan-3-yl)(2-(3-methoxyazetidin-1-yl)-6-(5-phenylpyrazolo[1,5-a]pyrimidin-3-yl)pyridin-4-yl)methanone], 14.1 nM. For `CCN(CC)[C@@H](C)CNC(=O)c1cccc(-c2cnn3ccc(-c4cccs4)nc23)n1` [Example 364, (S)—N-(2-(diethylamino)propyl)-6-(5-(thiophen-2-yl)pyrazolo[1,5-a]pyrimidin-3-yl)picolinamide], the IC50 was determined as 715 nM. On to `CCN(CC)[C@@H](C)CNC(=O)c1cc(-c2cnn(C)c2)nc(-c2cnn3ccc(-c4cccs4)nc23)c1` [Example 331, (S)—N-(2-(diethylamino)propyl)-2-(1-methyl-1H-pyrazol-4-yl)-6-(5-(thiophen-2-yl)pyrazolo[1,5-a]pyrimidin-3-yl)isonicotinamide], for which the IC50 came to 0.08 nM. Regarding `CCC(CNC(=O)c1cc(-c2cnn3ccc(-c4cccs4)nc23)nc(N2CC[C@H]2C(=O)NC)c1)N(CC)CC` (stereo partly drawn) [Example 356, N-(2-(diethylamino)butyl)-2-((S)-2-(methylcarbamoyl)azetidin-1-yl)-6-(5-(thiophen-2-yl)pyrazolo[1,5-a]pyrimidin-3-yl)isonicotinamide], the half-inhibitory concentration (IC50) was determined as 0.7 nM. With `N[C@@H]1CCC[C@H]2CCCN(C(=O)c3ccnc(-c4cnn5ccc(-c6ccccc6)nc45)c3)[C@H]21` [Example 98, ((4aS,8R,8aR)-8-aminooctahydroquinolin-1(2H)-yl)(2-(5-phenylpyrazolo[1,5-a]pyrimidin-3-yl)pyridin-4-yl)methanone] the figure was 7.36 nM.

Broadly, the IC50 is the concentration that inhibits the measured activity by half.
